Results taken from patent US11478466B2, “Small molecule promoting osteoblast differentiation” (Cornell University, priority 2019, dated 2022).

Assays:
zebrafish larvae = test: Larval zebrafish notochord ossification model (alizarin red); type: in vivo, Danio rerio; details: 15 μM, 24-h pulse 7-8 dpf, stained at 9 dpf, vs DMSO or inert analogs
Source text: DIPQUO Promotes and Accelerates Bone Mineralization In Vivo To address whether the observed effects of DIPQUO on osteoblast differentiation and maturation could extend to an in vivo bone model, we utilized the zebrafish, Danio rerio. First, zebrafish were used as a model system to examine developmental ossification via direct vertebral specification through conversion of the notochord sheath (Inohaya et al., 2007; Laue et al., 2008). During zebrafish larval stages, the extent and pattern of ossification observable at discrete developmental time points are susceptible to perturbation by cytokines or genetic modulation. The contribution of extrinsic factors to notochord ossification and patterning can be measured by alizarin red staining in a manner analogous to its application in gauging osteoblast maturation in cultured cells.
Animals studies were performed according to protocols approved by the WCMC IACUC. Wildtype (AB/TU hybrid) zebrafish were maintained at 28.5° C. Larval fish were treated from 7 dpf to 8 dpf in tank water with DMSO or with a 24-hour pulse of 15 μM DIPQUO or inert analog BT344 or BT345, and were fixed at 9 dpf in 4% paraformaldehyde overnight rocking at 4° C. Fixed larvae were washed in PBS-0.1% Tween-20 (PBST), followed by 50% ethanol/50% PBST. […] Images were acquired on a Zeiss LSM 800 confocal microscope and Sp7^+/col10a1^+ cells quantified using ImageJ.

JNK p54 = test: Western blotting of JNK in C2C12 cells; type: cell-based, mouse
Experimental: Whole cell extracts were collected from C2C12 or BRITER cells in complete lysis buffer (20 mM Tris, 150 mM NaCl, 50 mM NaF, 1% NP40 substitute, HALT protease inhibitor cocktail (ThermoScientific). Proteins were resolved by electrophoresis on pre-cast 10% NuPage Bis-Tris gels (Invitrogen) and transferred to PVDF membranes (Bio-Rad). Membranes were blocked in 5% BSA-TBS-0.5% Tween-20 for 15 minutes, then incubated at 4° overnight with primary antibodies. Antibodies used were: rabbit anti-phospho-p38 MAPK (cat. no. 9211), anti-p38 MAPK XP (8690), anti-phospho-SMAD1/5 (9516), anti-SMAD1 XP (6944), anti-phospho-SMAD2/3 (8828), anti-SMAD2/3 XP (8685), anti-phospho-JNK (4668), anti-SAPK/JNK (9252), anti-phospho-Akt XP (4060), pan anti-Akt (4691), anti-phospho ERK p42/p44 (4377), anti-ERK p42/p44 (9102), anti-phospho-MKK3/6 (12280), anti-MKK3 (8535), anti-phospho-TAK1 (4531), anti-TAK1 (5206), anti-HA (3274), and anti-FLAG (14793); all from Cell Signaling); and mouse anti-p38α (cat. no. 33-1300), anti-p38β (33-8700; both ThermoFisher) and anti-β-actin (Sigma A1978). Proteins were visualized with HRP-conjugated secondary antibodies (Bio-Rad) with WestPico (ThermoFisher) or Immobilon (Millipore) chemiluminescence reagents. Images were obtained and analyzed for relative densitometric relationships on a LI-COR C-DiGit scanner using Image Studio software.

AP-1 response element = AP-1 response element luciferase reporter assay; type: cell-based; details: 293T HEK cells, 7 hours, various concentrations
Experimental: For AP-1 reporter assays, 293T HEK cells were seeded at 0.25×10^6 cells/well of a gelatin-coated 24-well plate one day before transfection. Plasmid transfections were performed using Lipofectamine LTX (Invitrogen) according to manufacturer's protocol. Briefly, 293T HEK cells were co-transfected with pGL4.44 AP1 [luc2P/AP1 RE/Hygro] reporter plasmid (Promega) and SV40Renilla plasmid as a transfection control. 24 hours after transfection, cells were incubated in serum free DMEM media for 24 hours. The following day, cells were treated with 10 ng/ml PMA (Phorbol 12-myristate 13-acetate; Tocris) or indicated concentration of DIPQUO in serum free DMEM for 7 hours prior to lysis with 1× Passive Lysis buffer (Promega). Luciferase expression was measured using Dual-Glo Luciferase Assay (Promega).

## Cc1cc(C)c2[nH]c(=O)c(-c3[nH]cnc3-c3ccccc3)cc2c1 [RU-0226606, 6,8-dimethyl-3-(4-phenyl-1H-imidazol-5-yl)quinolin-2(1H)-one]
Zebrafish larvae
  mineralization of vertebral primordia (alizarin red): accelerate and accentuate mineralization of incipient vertebral primordia
JNK p54
  JNK p54 signaling: suppressed the p54 isoform
AP-1 response element
  AP-1 response element luciferase reporter activation: Neither did DIPQUO stimulate activation
